Experimental data reported in patent US20230310352A1, “NOVEL COMPOSITIONS AND METHODS FOR THE TREATMENT OF LUNG FIBROSIS” (LAURENT PHARMACEUTICALS INC., priority 2020, published 2023).

What was measured:
[1] = system: bleomycin-induced lung fibrosis; experiment: Intratracheal bleomycin mouse model of pulmonary fibrosis (21-day model); assay type: in vivo, C57BL/6N mice; settings: Day 21; oral once daily for 14 days; fenretinide 10 mg/kg (as LAU-7b SDI), pirfenidone 100 mg/kg
Protocol: Oral administration of a solid amorphous dispersion formulation of fenretinide (LAU-7b SDI) was evaluated in treating and/or reducing pulmonary fibrosis in mouse model of lung fibrosis induced via a single intratracheal administration of bleomycin followed by vehicle, fenretinide (LAU-7b SDI) or pirfenidone oral treatment for 21 days. The LAU-7b SDI formulation was obtained by spray drying and contains fenretinide in amorphous form in a solid dispersion comprising a matrix polymer, based on the following formula: 40% fenretinide, 59.6% povidone (KOLLIDON® 30), 0.24% butylated hydroxyanisole (BHA) and 0.16% butylated hydroxytoluene (BHT).
Male C57BL/6N mice from Charles River Laboratories, 10-12 weeks of age, weighing around 20-25 g, at the time of their enrolment, received 50 μL of bleomycin sulfate (2.0 mg/kg) by a single intratracheal instillation on Day 1 of the study. The Sham group received an equivalent volume of 0.9% saline. On Day 7 post-bleomycin instillation the animals were randomized in groups of 8 animals based on their body weight loss and Penh value. Oral dosing by gavage (10 mL/kg) with the vehicle (sham and BLM Control groups), LAU-7b SDI (fenretinide at 5 mg/kg and 10 mg/kg dose), and the reference compound (pirfenidone 100 mg/kg) were initiated once daily starting from Day 7 to Day 21. Two hours following the last dose on Day 21 all the mice were sacrificed, the lungs of each mouse were harvested, flushed with 0.9% NaCl and inflated with 10% neutral buffered formalin solution. After embedding and mounting of the lung tissue (transversal slices of 5 μm thickness), the histology slides were stained with hematoxylin/eosin for the Ashcroft score evaluation by a treatment-blinded pathologist, and with Sirius red staining for automated fibrosis quantification (Biocellvia, France).
As in Example 4, the key endpoints evaluated in this study were the Ashcroft score, pulmonary foci and collagen content obtained by histological assessment of the lung tissue at the end of the study. Statistical analysis was made on normally distributed data by one-way ANOVA followed by multiple comparisons (Fisher's LSD post hoc test) to assess the difference between the groups, using Graph Pad Prism Software version 8.0 (San Diego, CA, USA). Differences were considered statistically significant when P values were p<0.05 (*), or p<0.01 (**) or p<0.001 (***). The Ashcroft score was assessed in the lung tissue by treatment-blinded pathologist on the H&E stained histology slides (2 cross sections/animal) and using the modified Ashcroft scale. Briefly, each lung section was scanned at a magnification of ×100 (H&E staining), and graded from 0 (normal lung) to 8 (total fibrotic obliteration of the field). The mean value of the grades obtained for each of the two sections was used as the Ashcroft score.
Pulmonary foci (fibrotic tissue) and lung collagen content were quantified in the Sirius red stained lung tissue histology sections by high resolution, automated digital image analysis (Biocellvia, France) on Day 21 after lung fibrosis induction by bleomycin (BLM) instillation and following a 14-day oral gavage treatment with LAU-7b SDI (fenretinide, two doses), pirfenidone (reference drug) or vehicle only. Full field analysis of 2 lung sections per animal was conducted and the results were expressed as a mean percentage of total surface. This test is considered highly reliable, offering reproducible and observer-independent assessment of quantitative analysis of fibrosis.

[2] = system: bleomycin-induced lung fibrosis; experiment: Intratracheal bleomycin mouse model of pulmonary fibrosis (28-day model); assay type: in vivo, C57BL/6N mice; settings: Day 28; oral once daily Day 7 to Day 28; fenretinide 10 mg/kg (as LAU-7b SDI), pirfenidone 100 mg/kg
Description: Oral administration of a solid, amorphous dispersion formulation of fenretinide (LAU-7b SDI) was provided as a treatment for reduction of pulmonary fibrosis, in a mouse model of lung fibrosis induced via a single intratracheal administration of bleomycin, for 21 days. The LAU-7b SDI formulation was obtained by spray drying and contains fenretinide in amorphous form in a solid dispersion comprising a matrix polymer, based on the following formula: 40% fenretinide, 59.6% povidone (KOLLIDON® 30), 0.24% butylated hydroxyanisole (BHA) and 0.16% butylated hydroxytoluene (BHT).
Male C57BL/6N mice from Charles River Laboratories, 10-12 weeks of age, weighing around 20-25 g, at the time of their enrolment, received 50 μL of bleomycin sulfate (2.0 mg/kg) by a single intratracheal instillation on Day 1 of the study to induce lung fibrosis. The sham group received an equivalent volume of 0.9% saline. On Day 7 postbleomycin instillation, the animals were randomized in groups of animals based on their body weight loss and enhanced pause airway resistance estimate (PenH value), while the sham group had 6 mice. Oral dosing by gavage (10 mL/kg) with the vehicle (sham and BLM control groups), the test articles (fenretinide 10 mg/kg), and the reference compound (pirfenidone 100 mg/kg) were administered once daily starting from Day 7 to Day 28. Two hours following the last dose on Day 28, all mice were sacrificed, the lungs of each mouse harvested, flushed with 0.9% NaCl and inflated with 10% neutral buffered formalin solution. After embedding and mounting of the lung tissue (transversal slices of 5 μm thickness), the histology slides were stained with hematoxylin/eosin for the Ashcroft score evaluation by a treatment-blinded pathologist and with Sirius red staining for automated fibrosis quantification (Biocelvia, France).
The key endpoints evaluated in this study were Ashcroft score, pulmonary foci and collagen content obtained by histological assessment of the lung tissue at the end of the study. Statistical analysis was made on normally distributed data by one-way ANOVA followed by multiple comparisons (Fisher's LSD post hoc test) to assess the difference between the groups, using Graph Pad Prism Software version 8.0 (San Diego, CA, USA). Differences were considered statistically significant when P values were p<0.05 (*), or p<0.01 (**) or p<0.001 (***).
Ashcroft scale for the evaluation of bleomycin-induced lung fibrosis is the analysis of stained histological samples by visual assessment. The Ashcroft score was assessed in lung tissue collected on Day 28 by treatment-blinded pathologist on H&E stained lung tissue histology slides (3 cross sections/animal) and using the modified Ashcroft scale. Briefly, each lung section was scanned at a magnification of x100 (H&E staining), read by a blinded examiner, and graded from 0 (normal lung) to 8 (total fibrotic obliteration of the field). Criteria for grading lung fibrosis in Ashcroft scale are as follows: Grade 0=normal lung; Grade 1=minimal fibrous thickening of alveolar or bronchiolar walls; Grade 3=moderate thickening of walls without obvious damage to lung architecture; Grade 5=increased fibrosis with definitive damage to lung structure and formation of fibrous bands or small fibrous masses; Grade 7=severe distortion of structure and large fibrous area; Grade 8=total fibrous obliteration of lung fields. The mean value of the grades obtained for each of the three sections was used as the Ashcroft score. Ashcroft score, using the modified scale, is a reliable and reproducible method of visual quantification of bleomycin induced lung fibrosis in H&E stained histological lung sections based on description of the general morphology of alveolar septa and lung structure. […]

Cc1ccc(=O)n(-c2ccccc2)c1 [pirfenidone] was tested, and the “Ashcroft score vs BLM control” value [1] was “reduced significantly”, the “percentage of collagen content, automated Sirius red analysis, vs BLM control” value [1] was “did not induce statistically significant reduction” and the “percentage of pulmonary foci, automated Sirius red analysis, vs BLM control” value [1] was “did not induce statistically significant reduction”. For the same compound, the “Ashcroft score vs BLM control” value [2] was “did not induce significant improvement”, the “percentage of collagen content in lung tissue, automated Sirius red analysis, vs BLM control” value [2] was “significantly reduced” and the “percentage of pulmonary foci (fibrotic tissue), automated Sirius red analysis, vs BLM control” value [2] was “nonsignificant effect”.
